Laboratory results published in patent US11278543B2, “Inhibitors of the PP1/GADD34 complex for the treatment of a condition requiring an immunosuppressive activity” (INSERM, priority 2009, dated 2022).

Assays:
P-eIF2-α = assay: eIF2-α phosphorylation (P-eIF2-α) immunoblot in DCs; type: cell-based, mouse; conditions: for eIF2-α phosphorylation in presence of soluble poly I:C: DCs activated with soluble poly I:C 24 h, 75 μM salubrinal for the last 4 h
Description: (§1) Bone marrow-derived DCs were obtained and cultured as described previously^50. NIH3T3 cells were cultured in RPMI 1640 (GIBCO) supplemented with 10% FCS (HyClone, PERBIO), 100 units/ml penicillin and 100 μg/ml streptomycin (GIBCO). Wild-type and PKR^−/− MEFs (from Caetano Reis e Sousa) were cultured in DMEM, 10% FCS, pen/strep. Wild-type and GCN2^−/− MEFs (from David Ron) were cultured in RPMI, 10% FCS, pen/strep, MEM non-essential amino acids (GIBCO), 55 μM beta-mercaptoethanol. For the tryptophan starvation experiments, MEFs and DCs were cultured for the indicated time in RPMI 1640 Tryptophan—medium (21875, GIBCO). All cells were cultured at 37° C. and 5% CO2.
(§2) MEFs, NIH3T3 and immature DCs were treated for the indicated time with 10 μg/ml poly I:C (InvivoGen), alone or in combination with lipofectamine 2000 (Invitrogen). 2 μg/ml tunicamycin (SIGMA) was added to DCs for 2 h; 2 μM MG132 (BIOMOL International) was added to DCs and NIH3T3 4 h before harvesting; 75 μM salubrinal (Calbiochem) or 100 nM tautomycin (Calbiochem) were added to DCs 4 h before harvesting; 500 μM sodium arsenite (SIGMA) was added for 30 min to DCs, NIH3T3 and MEFs; 50 μM LY294002 (Calbiochem) was added to DCs 1 h before harvesting. Immature DCs were treated for the indicated time with 100 ng/ml LPS (SIGMA).
(§3) Cells were lysed in 1% Triton X-100, 50 mM Hepes, 10 mM NaCl, 2.5 mM MgCl2, 2 mM EDTA, 10% glycerol, 1 mM PMSF, supplemented with Complete Mini Protease Inhibitor Cocktail Tablets (Roche). Protein quantification was performed using the BCA Protein Assay (Pierce). 25-50 μg of Triton X-100-soluble material were loaded on 2%-12% gradient SDS-PAGE before immunoblotting and chemiluminescence detection (SuperSignal West Pico Chemiluminescent Substrate, Pierce). Nuclear extraction was performed using the Nuclear Complex Co-IP kit (Active Motif). Rabbit polyclonal antibodies against ATF4 (CREB-2, C-20) and eIF2α (FL-315) were from Santa Cruz Biotechnology, as well as mouse monoclonal against GADD34 (C-19) and PKR (B-10). Rabbit polyclonal antibodies against P-eIF2α (Ser 51) and caspase-3 were from BioSource and Cell Signaling Technology respectively. Mouse monoclonal antibodies against β-actin and histone H1 were from SIGMA and Upstate respectively. Secondary antibodies were from Jackson ImmunoResearch Laboratories. Quantification of eIF2α phosphorylation was performed using the Multi Gauge software (Fujifilm).

DCs [1] = assay: Translation intensity measurement by puromycin labelling in DCs; type: cell-based, mouse
Description: as §2, with “[…];” for “75 μM salubrinal (Calbiochem) or 100 nM tautomycin (Calbiochem) were added to DCs 4 h before harvesting;”
Puromycin labelling for measuring the intensity of translation was performed using 10 μg/ml puromycin (SIGMA, min 98% TLC, cell culture tested, P8833, diluted in PBS) was added in the culture medium and the cells were incubated for 10 min at 37° C. and 5% CO2. Where indicated, 25 μM cycloheximide (SIGMA) was added 5 min before puromycin. Cells were then harvested, centrifugated at 4° C. and washed with cold PBS prior to cell lysis and immunoblotting with the 12D10 antibody.
Cells were lysed in 1% Triton X-100, 50 mM Hepes, 10 mM NaCl, 2.5 mM MgCl2, 2 mM EDTA, 10% glycerol, 1 mM PMSF, supplemented with Complete Mini Protease Inhibitor Cocktail Tablets (Roche). Protein quantification was performed using the BCA Protein Assay (Pierce). […] Quantification of eIF2α phosphorylation was performed using the Multi Gauge software (Fujifilm).

IFN-β = IFN-β ELISA in culture supernatant of activated DCs; type: cell-based, mouse; conditions: poly I:C (or LPS) 8 h, salubrinal added 2 h before stimulation
Description: (§4) […] Immature DCs were treated for the indicated time with 100 ng/ml LPS (SIGMA).
IFN-β quantification in culture supernatant of DCs (5 fold-diluted) was performed using the Mouse Interferon Beta ELISA kit (PBL InterferonSource) according to manufacturer instructions.

caspase-3 = assay: Caspase-3 level and cleavage by immunoblot in DCs; type: cell-based, mouse
Description: as §4, §3

DCs [2] = assay: mRNA quantification by real-time RT-PCR in poly I:C stimulated DCs; type: cell-based, mouse; conditions: qPCR
Description: as §2
Total RNA was isolated from DCs using the RNeasy miniprep kit (Qiagen). cDNA was synthesized from RNA samples using the Superscript II reverse transcriptase (Invitrogen). Quantitative real-time PCR was carried out in complete SYBR Green PCR buffer (PE Biosystem) by using 200 nM of each specific primer. A total of 20 μl of PCR mix was added to 5 μl of cDNA template, and the amplification was tracked via SYBR Green incorporation by using a Stratagene sequence detection system. cDNA concentration in each sample were normalized by using HPRT. A nontemplate control was also routinely performed. Primers used for gene amplification (designed with the Primer3 software) have been generated.

DCs [3] = assay: Stress granule formation in DCs (mRNA in situ hybridization, confocal microscopy); type: cell-based, mouse
MEFs and NIH3T3 = assay: Translation monitoring in MEFs and NIH3T3 exposed to poly I:C; type: cell-based, mouse; conditions: lipofected poly I:C, within 4 to 8 hours
Description: as §1
as §2, with “(SIGMA). […]” for “(SIGMA).”

ATF4 = ATF4 protein immunoblot in nuclear extract of DCs; type: cell-based, mouse; conditions: poly I:C, 8 h
Description: as §2
Cells were lysed in 1% Triton X-100, 50 mM Hepes, 10 mM NaCl, 2.5 mM MgCl2, 2 mM EDTA, 10% glycerol, 1 mM PMSF, supplemented with Complete Mini Protease Inhibitor Cocktail Tablets (Roche). Protein quantification was performed using the BCA Protein Assay (Pierce). 25-50 μg of Triton X-100-soluble material were loaded on 2%-12% gradient SDS-PAGE before immunoblotting and chemiluminescence detection (SuperSignal West Pico Chemiluminescent Substrate, Pierce). Nuclear extraction was performed using the Nuclear Complex Co-IP kit (Active Motif). […] Quantification of eIF2α phosphorylation was performed using the Multi Gauge software (Fujifilm).

CHIKV = conditions: murine IFN-β added 3 h before infection, 10 MOI, GFP expression at 24 h

O=C(/C=C/c1ccccc1)NC(NC(=S)Nc1cccc2cccnc12)C(Cl)(Cl)Cl (centres unmarked) [salubrinal]
eIF2-α phosphorylation in presence of soluble poly I:C (P-eIF2-α): strongly accentuates eIF2-α phosphorylation | eIF2-α phosphorylation in presence of soluble poly I:C (P-eIF2-α; listed as Salubrinal): considerably enhanced | eIF2-α phosphorylation (P-eIF2-α; DCs, salubrinal alone, 75 μM, 4 h before harvesting): induced eIF2-α phosphorylation | Protein synthesis in poly I:C stimulated DCs (DCs [1]; poly I:C 4 or 8 h, salubrinal added 2 h before stimulation): strongly reduced | IFN-β secretion by activated DCs (IFN-β): drastically reduced | Caspase-3 levels and cleavage, salubrinal with poly I:C or LPS (caspase-3; DCs stimulated 8 h, salubrinal added 2 h before): lighter effect than salubrinal alone | Total levels of caspase-3 and its cleaved active product (caspase-3; DCs, salubrinal treatment alone): massive increase

CO[C@H]([C@H](O)CC(=O)[C@@H](C)[C@@H](O)CC[C@@H](C)[C@@H]1O[C@]2(CC[C@@H](C)[C@H](CC[C@H](C)C(C)=O)O2)CC[C@@H]1C)[C@H](OC(=O)C[C@@H](O)C1=C(C)C(=O)OC1=O)C(C)C [tautomycin]
eIF2-α phosphorylation (same experiments as with salubrinal) (P-eIF2-α; DCs, 100 nM tautomycin 4 h before harvesting, with or without poly I:C): confirmed

polyinosinic:polycytidylic acid [poly I:C]
P-eIF2-α levels during poly I:C stimulation (P-eIF2-α; DCs, soluble poly I:C time course): gradually reduced | Translation in DCs exposed to lipofected poly I:C (DCs [1]; after 8 hours of exposure): translation was not inhibited | Caspase-3 levels and cleavage, stimulus alone (caspase-3; DCs, 8 h, no salubrinal): little effect | ATF4 mRNA expression increase (DCs [2]; 10 μg/ml poly I:C): 2 folds | CHOP mRNA expression increase (DCs [2]; 10 μg/ml poly I:C): 8 folds | CReP mRNA expression (DCs [2]; poly I:C): induced only very modestly | PP1 mRNA expression (DCs [2]; poly I:C): only modestly increased | Proportion of DCs bearing stress granules upon activation (DCs [3]; DCs activated with poly I:C or LPS, 500 μM sodium arsenite for the last 30 min): 15% | Translation in MEFs (wt) and NIH3T3 (MEFs and NIH3T3): efficiently induced PKR-dependent translation arrest | ATF4 translation (protein level) (ATF4): strongly up-regulated

sodium arsenite
Proportion of DCs bearing stress granules (DCs [3]): ~100%

B1: IFN-β: murine interferon-β added to MEFs before CHIKV infection (protein, UniProt P01575 22-182, looked up)
Interferon beta: INYKQLQLQERTNIRKCQELLEQLNGKINLTYRADFKIPMEMTEKMQKSYTAFAIQEMLQNVFLVFRNNFSSTGWNETIVVRLLDELHQQTVFLKTVLEEKQEERLTWEMSSTALHLKSYYWRVQRYLKLMKYNSYAWMVVRAEIFRNFLIIRRLTRNFQN
CHIKV replication in WT and GADD34ΔC/ΔC MEFs (CHIKV): abrogation of viral replication
